Where two headings read alike, the source gives them in different places.
Legend:
[1] = biological target: T1, LEDGF-integrase interaction (His6-tagged HIV-1 integrase, flag-LEDGF/p75) (Human immunodeficiency virus type 1 group M subtype B, UniProt P04585); assay: AlphaScreen assay of LEDGF-integrase interaction inhibition; format: binding; conditions: compound at 100 μM
T1 construct: His6-tagged HIV-1 integrase; made in house
Protocol: The AlphaScreen assay was performed according to the manufacturer's protocol (Perkin Elmer, Benelux). Reactions were performed in 25 μl final volume in 384-well Optiwell™ microtiter plates (Perkin Elmer). The reaction buffer contained 25 mM Tris-HCl (pH 7.4), 150 mM NaCl, 1 mM MgCl2, 0.01% (v/v) Tween-20 and 0.1% (w/v) bovine serum albumin. His6-tagged integrase (300 nM final concentration) was incubated with the compounds for 30 min at 4° C. The compounds were added at varying concentrations spanning a wide range from 0.1 up to 100 μM. Afterwards 100 nM flag-LEDGF/p75 was added and incubation was prolonged for an additional hour at 4° C. Subsequently 5 μl of Ni-chelate—coated acceptor beads and 5 μl anti-flag donor beads were added to a final concentration of 20 μg/ml of both beads. Proteins and beads were incubated for 1 h at 30° C. in order to allow association to occur. Exposure of the reaction to direct light was omitted as much as possible and the emission of light from the acceptor beads was measured in the EnVision plate reader (Perkin Elmer, Benelux) and analyzed using the EnVision manager software. IN/DNA binding was analyzed in a similar setting using His6-tagged integrase (1 μM final concentration) and an oligodeoxynucleotide mimicking the IN ELISA oligonucleotide substrate (30 nM final concentration). Counterscreens with JPO2 or PogZ, respectively, were essentially performed as described previously. Expression and purification of recombinant proteins: His6-tagged HIV-1 integrase, 3xflag-tagged LEDGF/p75, MBP-JPO2 and MBP-PogZ were purified for AlphaScreen applications as described previously.

MT-4 cells = assay: Cytotoxicity in mock-infected MT-4 cells (MTT); format: cell-based
Protocol: (§1) A rapid and automated assay procedure was used for the in vitro evaluation of anti-HIV agents. An HTLV-1 transformed T4-cell line MT-4, which was previously shown to be highly susceptible to and permissive for HIV infection, served as the target cell line. Inhibition of the HIV-induced cytopathogenic effect was used as the end point. The viability of both HIV-and mock-infected cells was assessed spectrophotometrically via in situ reduction of 3-(4,5-dimethylthiazol-2-yl)-2,5-diphenyltetrazolium bromide (MTT). […] The percent protection achieved by the compound in HIV-infected cells was calculated by the following formula: […]
(§2) whereby (ODT)HIV is the optical density measured with a given concentration of the test compound in HIV-infected cells; (ODC)HIV is the optical density measured for the control untreated HIV-infected cells; (ODC)MOCK is the optical density measured for the control untreated mock-infected cells; all optical density values were determined at 540 nm. […] The ratio of CC50 to EC50 was defined as the selectivity index (SI).

HIV = assay: microbe, parasite or virus in culture; format: cell-based
Protocol: A rapid and automated assay procedure was used for the in vitro evaluation of anti-HIV agents. An HTLV-1 transformed T4-cell line MT-4, which was previously shown to be highly susceptible to and permissive for HIV infection, served as the target cell line. Inhibition of the HIV-induced cytopathogenic effect was used as the end point. The viability of both HIV-and mock-infected cells was assessed spectrophotometrically via in situ reduction of 3-(4,5-dimethylthiazol-2-yl)-2,5-diphenyltetrazolium bromide (MTT). The 50% cytotoxic concentration (CC50 in μg/ml) was defined as the concentration of compound that reduced the absorbance of the mock-infected control sample by 50%. The percent protection achieved by the compound in HIV-infected cells was calculated by the following formula: […]
whereby (ODT)HIV is the optical density measured with a given concentration of the test compound in HIV-infected cells; (ODC)HIV is the optical density measured for the control untreated HIV-infected cells; (ODC)MOCK is the optical density measured for the control untreated mock-infected cells; all optical density values were determined at 540 nm. The dose achieving 50% protection according to the above formula was defined as the 50% inhibitory concentration (EC50 in μg/ml or μM). The ratio of CC50 to EC50 was defined as the selectivity index (SI). […] Examples of inhibition of cell proliferation by particular compounds of the invention can be found by looking at the respective CC50 values in the MT-4 cell line. Cells: MT-4 cells (Miyoshi et al., 1982) were grown and maintained in RPMI 1640medium supplemented with 10% heat-inactivated fetal calf serum, 2 mM 1-glutamine, 0.1% sodium bicarbonate, and 20æg of gentamicin per ml.
Viruses: The HIV-1 (NL4.3) strain (Adachi et al., 1986) is a molecular clone obtained from the National Institutes of Health (Bethesda, Md.). The HIV-2 (ROD) (Barr, -Sinoussi et al., 1983) stock was obtained from culture supernatant of HIV-2 infected cell lines.

[2] = Cytotoxicity in mock-infected MT-4 cells (MTT); format: cell-based; conditions: human, mock-infected MT-4 cells
Protocol: as §1, §2

[3] = mock-infected MT-4 cells, read-out: CC50
[4] = 50% protection of HIV-infected MT-4 cells, read-out: EC50
[5] = Human immunodeficiency virus 1, MT4, 50% protection of HIV-infected MT-4 cells, read-out: EC50
[6] = Human immunodeficiency virus 1, MT4

Compound	Alpha screen % (100 μM) [1]	CC50 (MT-4 cells; [3])	EC50 (HIV; [4])	EC50 (HIV; [5])	CC50 [2]	EC50 (HIV; [6])	CC50 (MT-4 cells)
2-[2-tert-butyl-7-(1,2-dihydroacenaphthylen-5-yl)-5-methylpyrazolo[1,5-a]pyrimidin-6-yl]acetic acid [CPD-111]	89%	50 µM	–	–	–	–	–
2-[2-tert-butyl-7-(1,2-dihydroacenaphthylen-5-yl)-5-methylpyrazolo[1,5-a]pyrimidin-6-yl]acetic acid [CPD-112]	93%	59 µM	–	–	–	–	–
2-[2-tert-butyl-7-(2-hydroxy-4-methylphenyl)-5-methylpyrazolo[1,5-a]pyrimidin-6-yl]acetic acid [CPD-117]	95%	116 µM	2.06 µM	–	–	–	–
COCCC(C(=O)O)c1c(C)nc2cc(C(C)(C)C)nn2c1-c1ccc(C)cc1 (stereo not drawn) [CPD-88, 2-(2-tert-butyl-7-p-tolyl-5-methylpyrazolo[1,5-a]pyrimidin-6-yl)-4-methoxybutanoic acid]	44%	–	–	38 µM	> 250 µM	–	–
CCCC(C(=O)O)c1c(C)nc2cc(C(C)(C)C)nn2c1-c1ccc(C(C)C)cc1 (stereo not drawn) [CPD-89, 2-(2-tert-butyl-5-methyl-7-(4-iso-propylphenyl)pyrazolo[1,5-a]pyrimidin-6-yl)pentanoic acid]	89%	–	–	–	139 µM	24 µM	–
CCCC(C(=O)O)c1c(C)nc2cc(C(C)(C)C)nn2c1-c1ccc(C(F)(F)F)cc1 (stereo not drawn) [CPD-90, 2-(2-tert-butyl-5-methyl-7-(4-trifluoromethylphenyl)pyrazolo[1,5-a]pyrimidin-6-yl)pentanoic acid]	70%	–	–	6.15 µM	22 µM	–	–
CCCC(C(=O)O)c1c(C)nc2cc(C(C)(C)C)nn2c1-c1ccc(F)cc1F (stereo not drawn) [CPD-91, 2-(2-tert-butyl-7-(2,4-difluorophenyl)-5-methylpyrazolo[1,5-a]pyrimidin-6-yl)pentanoic acid]	90%	–	–	15.7 µM	85.5 µM	–	–
CCCC(C(=O)O)c1c(C)nc2cc(C(C)(C)C)nn2c1-c1ccc(C)cc1Cl (stereo not drawn) [CPD-92, 2-(2-tert-butyl-7-(2-chloro-4-methylphenyl)-5-methylpyrazolo[1,5-a]pyrimidin-6-yl)pentanoic acid]	95%	–	–	9.13 µM	60.5 µM	–	–
CCCC(C(=O)O)c1c(C)nc2cc(C(C)(C)C)nn2c1-c1ccc(C)cc1N (stereo not drawn) [CPD-93, 2-(7-(2-amino-4-methylphenyl)-2-tert-butyl-5-methylpyrazolo[1,5-a]pyrimidin-6-yl)pentanoic acid]	90%	–	–	–	119 µM	7.4 µM	–
CCCC(C(=O)O)c1c(C)nc2cc(C(C)(C)C)nn2c1-c1ccc(OC)cc1F (stereo not drawn) [CPD-95, 2-(2-tert-butyl-7-(2-fluoro-4-methoxyphenyl)-5-methylpyrazolo[1,5-a]pyrimidin-6-yl)pentanoic acid]	83%	–	–	7.48 µM	115 µM	–	–
CCCC(C(=O)O)c1c(C)nc2cc(C(C)(C)C)nn2c1-c1ccc(C)cc1C (stereo not drawn) [CPD-98, 2-(2-tert-butyl-7-(2,4-dimethylphenyl)-5-methylpyrazolo[1,5-a]pyrimidin-6-yl)pentanoic acid]	89%	–	–	–	69 µM	5.91 µM	–
CCCC(C(=O)O)c1c(C)nc2c(C)c(C(C)(C)C)nn2c1-c1ccc(C)cc1 (stereo not drawn) [CPD-99, 2-(2-tert-butyl-3,5-dimethyl-7-p-tolylpyrazolo[1,5-a]pyrimidin-6-yl)pentanoic acid]	81%	–	–	1.01 µM	34 µM	–	–
CCCC(C(=O)O)c1c(C)nc2c(-c3ccccc3)c(C(C)(C)C)nn2c1-c1ccc(C)cc1 (stereo not drawn) [CPD-100, 2-(2-tert-butyl-5-methyl-3-phenyl-7-p-tolylpyrazolo[1,5-a]pyrimidin-6-yl)pentanoic acid]	92%	–	–	6.24 µM	23 µM	–	–
Ethyl 2-(2-benzyl-5-methyl-7-p-tolyl-[1,2,4]-triazolo[1,5-a]pyrimidin-6-yl)pentanoate [CPD-123]	–	–	26.1 µM	–	–	–	126 µM

Source: patent US20120316161A1, “NOVEL ANTIVIRAL COMPOUNDS” (KATHOLIEKE UNIVERSITEIT LEUVEN, priority 2009, published 2012)
